Source: patent US20230391775A1, “SUBSTITUTED DIARYLAMINE COMPOUND, PHARMACEUTICAL COMPOSITION THEREOF, PREPARATION METHOD THEREFOR, AND USE THEREOF” (SUZHOU YABAO PHARMACEUTICAL R&D CO., LTD., priority 2020, published 2023)

target: LRRK2 G2019S (Homo sapiens (Human), UniProt Q5S007, G2019S); assay: Adapta kinase assay (LRRK2_IC50 assay); type: biochemical; conditions: Adapta TR-FRET, 1 h, room temperature
Experimental: In the Adapta™ kinase assay method (LRRK2_IC50 assay): the kinase reaction buffer contained kinase buffer S (Life Technologies, PV5213) and 2 mM DTT (Life Technologies, P2325). The kinases LRRK2 G2019S protein (PV4881) and ERM (LRRKtide, PV5093) were derived from Life Technologies. The Adapta™ universal kinase assay kit (Life Technologies, PV5099) contained the following components: Adapta™ Eu-anti-ADP antibody (PV5097; 4 μg); 10 μM AlexaFluor®647 ADP tracer (PV5098; 200 pmol); TR-FRET dilution buffer (PV3574; 100 mL); kinase quench buffer (P2825; 1 mL); 10 mM ATP (PV3227; 500 μL); and 10 mM ADP (PV5096; 500 μL). LRRK2-IN-1 (1234480-84-2, HY-10875) was derived from MedChem Express.
Adapta™ Kinase Assay Method
Adapta® universal kinase assay method is a uniform fluorescence-based immunoassay for detecting ADP. In contrast to ATP consumption assay, Adapta® assay method was very sensitive to ADP formation, with most signal changes occurring when initially 10-20% ATP was converted to ADP. This made Adapta® universal kinase assay method very suitable for low-activity kinases.
All assays were performed at room temperature (about 21° C.) and were linearly related to time and enzyme concentration under the conditions used. 1× kinase reaction buffer was prepared from 5× kinase buffer S stock solution (listed above), and 10 mL of 1× kinase reaction buffer was prepared by the addition of 2 mL of 5× stock solution to 8 mL of H2O. To the 1× kinase reaction buffer was added 20 μL of 1 M DTT.
A kinase reaction was performed in a low-volume 384-well plate in a volume of 10 μL. Typically, a Greiner plate was used (Catalog #3674 #, low volume, white wall, 784075). Other untreated assay plates that were not tested could also be suitable. The substrate concentration in the assay was 100 μM, and the 1× kinase reaction buffer consisted of 50 mM Tris-HCl (pH 8.5), 10 mM MgCl2, 1 mM EGTA, 0.01% Brij-35 and 2 mM DTT, as well as any other additives that could be necessary for the particular kinase. The kinase reaction was allowed to proceed for 1 h at room temperature, followed by the addition of a formulation of kinase quenching buffer (EDTA; 30 mM), Eu-labeled antibody (6 nM), and tracer (18.9 nM) in TR-FRET dilution buffer (5 μL). The final concentration of the antibody in the assay wells was 2 nM, the final concentration of the tracer was 6.3 nM, and the final concentration of EDTA was 10 mM. The plate was allowed to equilibrate at room temperature for at least 30 min and then read on a plate reader configured for Adapta™ TR-FRET.
The data provided in this document were generated by using BMG LABTECH PHERAstar plate reader and using appropriate filters and instrument settings for Adapta™. Test compounds were screened in wells with 1% DMSO (final). For 8-point titration, a 5-fold serial dilution was made on the basis of a starting concentration.

Sequence of LRRK2 G2019S (Q5S007 whole entry G2019S): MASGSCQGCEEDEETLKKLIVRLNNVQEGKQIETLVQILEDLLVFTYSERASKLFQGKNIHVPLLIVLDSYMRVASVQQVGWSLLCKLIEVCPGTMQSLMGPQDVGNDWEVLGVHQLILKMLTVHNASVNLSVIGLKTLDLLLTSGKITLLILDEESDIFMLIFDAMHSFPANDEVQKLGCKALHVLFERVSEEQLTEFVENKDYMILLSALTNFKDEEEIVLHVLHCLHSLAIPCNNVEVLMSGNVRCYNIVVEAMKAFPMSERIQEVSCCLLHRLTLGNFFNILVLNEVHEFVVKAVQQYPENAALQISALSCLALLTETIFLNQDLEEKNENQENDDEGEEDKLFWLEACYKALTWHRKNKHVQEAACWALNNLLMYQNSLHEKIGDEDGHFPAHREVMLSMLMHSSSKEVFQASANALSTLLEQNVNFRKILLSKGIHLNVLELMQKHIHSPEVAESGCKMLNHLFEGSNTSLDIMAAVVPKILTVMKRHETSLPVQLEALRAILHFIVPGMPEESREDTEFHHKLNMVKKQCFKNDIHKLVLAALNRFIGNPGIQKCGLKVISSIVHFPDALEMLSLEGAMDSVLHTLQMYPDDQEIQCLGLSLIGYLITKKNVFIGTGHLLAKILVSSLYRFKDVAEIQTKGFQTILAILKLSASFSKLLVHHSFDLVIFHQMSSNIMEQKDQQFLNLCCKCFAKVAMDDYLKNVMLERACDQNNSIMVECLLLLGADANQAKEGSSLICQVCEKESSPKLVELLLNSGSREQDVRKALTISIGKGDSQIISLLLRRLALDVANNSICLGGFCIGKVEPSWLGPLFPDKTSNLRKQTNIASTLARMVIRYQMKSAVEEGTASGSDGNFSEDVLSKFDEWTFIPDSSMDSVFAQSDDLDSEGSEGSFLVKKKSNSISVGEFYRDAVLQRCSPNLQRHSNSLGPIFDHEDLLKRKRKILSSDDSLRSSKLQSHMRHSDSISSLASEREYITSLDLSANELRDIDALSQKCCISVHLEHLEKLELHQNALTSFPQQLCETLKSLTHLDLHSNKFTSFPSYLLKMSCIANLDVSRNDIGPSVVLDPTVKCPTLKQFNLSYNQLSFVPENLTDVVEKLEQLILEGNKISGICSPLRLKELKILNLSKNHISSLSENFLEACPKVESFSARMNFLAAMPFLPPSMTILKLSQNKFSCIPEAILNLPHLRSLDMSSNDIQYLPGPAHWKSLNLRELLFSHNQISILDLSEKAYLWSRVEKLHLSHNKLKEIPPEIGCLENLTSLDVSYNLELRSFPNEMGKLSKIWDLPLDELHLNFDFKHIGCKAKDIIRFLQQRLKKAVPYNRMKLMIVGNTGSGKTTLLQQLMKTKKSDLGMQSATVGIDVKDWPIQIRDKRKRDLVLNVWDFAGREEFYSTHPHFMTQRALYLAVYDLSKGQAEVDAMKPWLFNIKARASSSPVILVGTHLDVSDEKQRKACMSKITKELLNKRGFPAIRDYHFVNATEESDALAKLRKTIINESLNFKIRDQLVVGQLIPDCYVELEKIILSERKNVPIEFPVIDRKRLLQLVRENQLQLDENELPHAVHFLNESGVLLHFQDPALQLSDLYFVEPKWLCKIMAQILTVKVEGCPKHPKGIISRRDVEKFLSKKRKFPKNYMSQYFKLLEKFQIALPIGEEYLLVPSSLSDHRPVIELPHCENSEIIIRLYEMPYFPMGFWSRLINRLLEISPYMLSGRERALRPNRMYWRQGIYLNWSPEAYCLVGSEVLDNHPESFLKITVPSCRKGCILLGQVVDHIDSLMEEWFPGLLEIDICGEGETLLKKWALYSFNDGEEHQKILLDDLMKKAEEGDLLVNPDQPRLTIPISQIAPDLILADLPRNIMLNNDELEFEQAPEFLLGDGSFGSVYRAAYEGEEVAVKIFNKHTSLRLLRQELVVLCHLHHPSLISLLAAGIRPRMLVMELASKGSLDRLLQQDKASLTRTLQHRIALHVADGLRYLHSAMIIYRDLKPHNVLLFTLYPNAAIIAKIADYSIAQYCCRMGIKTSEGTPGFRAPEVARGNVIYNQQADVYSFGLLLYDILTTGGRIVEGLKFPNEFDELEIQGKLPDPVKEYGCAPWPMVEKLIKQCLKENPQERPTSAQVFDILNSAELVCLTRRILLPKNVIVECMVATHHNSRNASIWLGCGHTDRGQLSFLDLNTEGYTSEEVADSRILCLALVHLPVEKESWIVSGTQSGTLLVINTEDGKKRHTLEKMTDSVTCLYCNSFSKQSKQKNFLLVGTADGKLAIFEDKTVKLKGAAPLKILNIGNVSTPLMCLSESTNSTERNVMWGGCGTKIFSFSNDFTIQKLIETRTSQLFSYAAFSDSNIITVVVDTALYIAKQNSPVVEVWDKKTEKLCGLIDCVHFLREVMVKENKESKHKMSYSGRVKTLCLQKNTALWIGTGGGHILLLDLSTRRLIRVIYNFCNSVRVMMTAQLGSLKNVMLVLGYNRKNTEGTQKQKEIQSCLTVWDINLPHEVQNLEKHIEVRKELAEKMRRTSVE

Row | Structure (SMILES) | IC50 [nM]
1 | COCCOc1nc(Nc2ccc(C(N3CCOCC3)C(F)(F)F)cc2OC)nc2[nH]ccc12 (single isomer, unassigned) [Compound 11] | 6
2 | COc1cc(C(N2CCOCC2)C(F)(F)F)ccc1Nc1nc(C)c2cc[nH]c2n1 (single isomer, unassigned) [Compound 18] | 253
3 | CCOc1nc(Nc2ccc(C(C)(N3CCOCC3)C(F)(F)F)cc2OC)nc2[nH]ccc12 (single isomer, unassigned) [Compound 2, 4-ethoxy-N-(2-methoxy-4-(1,1,1-trifluoro-2-morpholinylpropan-2-yl)phenyl)-7H-pyrrolo[2,3-d]pyrimidin-2-amine] | 55
4 | COCCOc1nc(Nc2ccc(C(N3CCOCC3)C(F)(F)F)cc2OC)nc2[nH]ccc12 (single isomer, unassigned) [Compound 12] | 12
5 | COc1cc(C(N2CCOCC2)C(F)(F)F)ccc1Nc1nc(OCC(F)(F)F)c2cc[nH]c2n1 (single isomer, unassigned) [Compound 5] | 17
6 | CCc1nc(Nc2ccc(C(N3CCOCC3)C(F)(F)F)cc2OC)nc2[nH]ccc12 (single isomer, unassigned) [Compound 19] | 332
7 | CCOc1nc(Nc2ccc(C(N3C[C@@H]4C[C@H]3CO4)C(F)(F)F)cc2OC)nc2[nH]ccc12 (single isomer, unassigned) [Compound 10] | 11
8 | COc1cc(C(N2CCOCC2)C(F)(F)F)ccc1Nc1nc(OCC(F)(F)F)c2cc[nH]c2n1 (single isomer, unassigned) [Compound 6] | 12
9 | CCOc1nc(Nc2ccc(C(N3CCOCC3)C(F)(F)F)cc2Cl)nc2[nH]ccc12 (single isomer, unassigned) [Compound 21] | 119
10 | CCOc1nc(Nc2ccc(C(N3CCOCC3)C(F)(F)F)cc2OC)nc2[nH]ccc12 (single isomer, unassigned) [Compound 1, 4-ethoxy-N-(2-methoxy-4-(2,2,2-trifluoro-1-morpholinoethyl)phenyl)-7H-pyrrolo[2,3-d]pyrimidin-2-amine] | 12
11 | CCOc1nc(Nc2ccc(C3(N4CCOCC4)CC3)cc2OC)nc2[nH]ccc12 [Compound 3, 4-ethoxy-N-(2-methoxy-4-(1-morpholinocyclopropyl)phenyl)-7H-pyrrolo[2,3-d]pyrimidin-2-amine] | 7
12 | COc1cc(C(N2C[C@@H]3C[C@H]2CO3)C(F)(F)F)ccc1Nc1nc(OCC(F)(F)F)c2cc[nH]c2n1 (single isomer, unassigned) [Compound 7] | 47
13 | COc1cc(C(N2CCOCC2)C(F)(F)F)ccc1Nc1nc(C)c2cc[nH]c2n1 (single isomer, unassigned) [Compound 17] | 204
14 | COc1cc(C(N2C[C@@H]3C[C@H]2CO3)C(F)(F)F)ccc1Nc1nc(OCC(F)(F)F)c2cc[nH]c2n1 (single isomer, unassigned) [Compound 8] | 52
15 | CCOc1nc(Nc2ccc(C(N3CCOCC3)C(F)(F)F)cc2F)nc2[nH]ccc12 (single isomer, unassigned) [Compound 13] | 31
16 | CCOc1nc(Nc2ccc(C(N3C[C@@H]4C[C@H]3CO4)C(F)(F)F)cc2OC)nc2[nH]ccc12 (single isomer, unassigned) [Compound 9] | 7
17 | CCc1nc(Nc2ccc(C(N3CCOCC3)C(F)(F)F)cc2OC)nc2[nH]ccc12 (single isomer, unassigned) [Compound 20] | 235
18 | COc1cc(C(N2CCOCC2)C(F)(F)F)ccc1Nc1ncc2cc[nH]c2n1 (single isomer, unassigned) [Compound 16] | 430
19 | COc1cc(C(N2CCOCC2)C(F)(F)F)ccc1Nc1ncc2cc[nH]c2n1 (single isomer, unassigned) [Compound 15] | 328
20 | CCOc1nc(Nc2ccc(C(N3CCOCC3)C(F)(F)F)cc2F)nc2[nH]ccc12 (single isomer, unassigned) [Compound 14] | 30

Next, values leading:

Row | IC50 [nM] | Structure (SMILES)
21 | 38 | CCOc1nc(Nc2cc(F)c(C3(N4CCOCC4)CC3)cc2OC)nc2[nH]ccc12 [Compound 36]
22 | 141 | CCOc1nc(Nc2ccc(C(N3CCOCC3)C(F)(F)F)cc2CC)nc2[nH]ccc12 (single isomer, unassigned) [Compound 25]
23 | 275 | CCOc1nc(Nc2ccc(C(C)(N3CCOCC3)C(F)(F)F)cc2OC)nc2[nH]ccc12 (single isomer, unassigned) [Compound 35, 4-ethoxy-N-(2-methoxy-4-(1,1,1-trifluoro-2-morpholinopropan-2-yl)phenyl)-7H-pyrrolo[2,3-d]pyrimidin-2-amine]
24 | 64 | CCOc1nc(Nc2ccc(C(N3CCN4CCC[C@@H]4C3)C(F)(F)F)cc2OC)nc2[nH]ccc12 (single isomer, unassigned) [Compound 31]
25 | 138 | CCOc1nc(Nc2ccc(C(N3CCOCC3)C(F)(F)F)cc2Cl)nc2[nH]ccc12 (single isomer, unassigned) [Compound 22]
26 | 27 | CCOc1nc(Nc2ccc(C(N3CCN4CCC[C@@H]4C3)C(F)(F)F)cc2OC)nc2[nH]ccc12 (single isomer, unassigned) [Compound 32]
27 | 122 | COc1nc(Nc2ccc(C(N3CCOCC3)C(F)(F)F)cc2Cl)nc2[nH]ccc12 (single isomer, unassigned) [Compound 24]
28 | 5 | COc1cc(C(N2CCOCC2)C(F)(F)F)ccc1Nc1nc(OCCO)c2cc[nH]c2n1 (single isomer, unassigned) [Compound 28]
29 | 147 | COc1nc(Nc2ccc(C(N3CCOCC3)C(F)(F)F)cc2Cl)nc2[nH]ccc12 (single isomer, unassigned) [Compound 23]
30 | 12 | CCOc1nc(Nc2ccc(C(N3CCN(C)CC3)C(F)(F)F)cc2OC)nc2[nH]ccc12 (single isomer, unassigned) [Compound 29]
31 | 22 | CCOc1nc(Nc2ccc(C(N3CCN(C)CC3)C(F)(F)F)cc2OC)nc2[nH]ccc12 (single isomer, unassigned) [Compound 30]
32 | 5 | COc1cc(C(N2CCOCC2)C(F)(F)F)ccc1Nc1nc(OCCO)c2cc[nH]c2n1 (single isomer, unassigned) [Compound 27]
33 | 34 | CNc1nc(Nc2cc(F)c(C3(N4CCOCC4)CC3)cc2OC)ncc1C(F)(F)F [Compound 37]
34 | 70 | CCOc1nc(Nc2ccc(C(N3CCOCC3)C(F)(F)F)cc2CC)nc2[nH]ccc12 (single isomer, unassigned) [Compound 26]
35 | 25 | COc1cc(C2(N3CCOCC3)CC2)c(F)cc1Nc1nc(OC)c2cc[nH]c2n1 [Compound 38]
36 | 8 | CCOc1nc(Nc2ccc(C(N3C[C@H]4C[C@@H]3CO4)C(F)(F)F)cc2OC)nc2[nH]ccc12 (single isomer, unassigned) [Compound 34]
37 | 10 | CCOc1nc(Nc2ccc(C(N3C[C@H]4C[C@@H]3CO4)C(F)(F)F)cc2OC)nc2[nH]ccc12 (single isomer, unassigned) [Compound 33]
